Measurements from US20030153548A1, “Histamine-3 receptor ligands for diabetic conditions” (priority 2002, published 2003).

Experiments:
[1] = tested on: C57BL-6J mice fed a high-fat diet; assay: Insulin tolerance test in mice fed a high-fat diet; assay type: in vivo; details: FIG. 1
Procedure: Assessment of the ability of H3 receptor antagonists to ameliorate symptoms of diabetes has been determined in several ways. In the first instance, effects of an H3 antagonist on the insulin tolerance test in mice fed a high-fat diet were determined. C57BL-6J mice (aged 5-6 weeks) were obtained from Jackson Labs (Bar Harbor, Me., U.S.A.) and individually housed at Abbott facilities under conditions of 12 h lights on, 12 h lights off (on at 22:00), with food and water available ad libitum. […] Nine days prior to drug treatment, postprandial blood glucose was determined via a Medisense-G glucometer (Abbott Laboratories, Medisense Division, Bedford, Mass., U.S.A.). […] On day 21, animals were fasted for 3 hours and fasting blood glucose determined in a blood sample obtained by tail snip. Insulin tolerance was determined by administering insulin (Lilly Humulin-R, 0.25 U/kg, i.p., obtained from Eli Lilly and Company, Indianapolis, Ind., U.S.A.) with blood glucose measured at 30, 60, 90 and 120 minutes using the glucometer. […] The 4′-{3-[(3R)-3-(dimethylamino)pyrrolidinyl]propoxy} [1,1′-biphenyl]-4-carbonitrile compound was administered p.o. at doses of 0.5, 5, and 15 mg/kg b.i.d., and dexfenfluramine at a dose of 10 mg/kg p.o., b.i.d. Data were analyzed using GraphPad InStat® (San Diego, Calif., U.S.A.) software using a one-way ANOVA software followed by Dunnett's post hoc test.

[2] = tested on: C57BL-6J mice fed a high-fat diet; assay: Serum triglyceride levels in mice fed a high-fat diet; assay type: in vivo; details: FIG. 2

In the case of `CN(C)[C@@H]1CCN(CCCOc2ccc(-c3ccc(C#N)cc3)cc2)C1` [Compound A, 4′-{3-[(3R)-3-(dimethylamino)pyrrolidinyl]propoxy}[1,1′-biphenyl]-4-carbonitrile], the “insulin tolerance test (blood glucose after insulin)” value ([1]; 15 mg/kg p.o. twice daily) is reported as “completely normalized” and the “insulin tolerance test (blood glucose after insulin)” value ([1]; 0.5, 5 and 15 mg/kg p.o. b.i.d., day 21, insulin 0.25 U/kg i.p.) is reported as “dose-dependent improvement”.

`CN(C)C1CCN(CCCOc2c(F)cc(-c3ccc(C#N)cc3)cc2F)C1` (centres unmarked) [Compound B] was tested, and the triglyceride levels ([2]; 10 mg/kg p.o. b.i.d., after 13 days) was “reduced to the same level as those seen in low-fat diet fed mice” and the triglyceride levels ([2]; 1, 3 and 10 mg/kg p.o. b.i.d., postprandial blood after 13 days) was “clear, dose-dependent decrease”.

With `CC(C)CC(N(C)C)C1(c2ccc(Cl)cc2)CCC1` (centres unmarked) [sibutramine, reference compound] the “triglyceride levels (effects as of Compound B)” value ([2]; 5 mg/kg p.o. b.i.d., after 13 days) was “not seen”.
